Assay results reported in patent US8952025B2, “Multifunctional radical quenchers and their uses” (Arizona Board of Regents, A Body Corporate of the State of …, priority 2010, dated 2015).

How the values were obtained:
cultured FRDA cells = test: Cytoprotection of cultured FRDA cells depleted of glutathione; type: cell-based; conditions: pretreated then depleted of glutathione, read-out: Viable Cells (%)
Description: The cells were pretreated with the compounds and then depleted of glutathione. The cell viability is expressed as percentage of total number of cells.

[1] = tested on: NADH oxidase, bovine heart mitochondrial complex (I, III, IV); test: NADH oxidase inhibition assay, submitochondrial particles; type: biochemical
Protocol: Beef heart mitochondria were obtained by a large-scale procedure. Inverted submitochondrial particles (SMP) were prepared by the method of Matsuno-Yagi and Hatefi (J. Biol. Chem. 260 (1985), p. 14424), and stored in a buffer containing 0.25 M sucrose and 10 mM Tris-HCl (pH 7.4) at −80° C. Inhibitory effects of compounds on bovine heart mitochondrial complex (I, III, IV) were evaluated. Maximal dimethyl sulfoxide concentration never exceeded 2% and had no influence on the control enzymatic activity. Beef heart SMP were diluted to 0.5 mg/mL. The enzymatic activities were assayed at 30° C. and monitored spectrophotometrically with a Beckman Coulter DU-530 (340 nm, c=6.22 mM^−1 cm^−1). NADH oxidase activity was determined in a reaction medium (2.5 mL) containing 50 mM Hepes, pH 7.5, containing 5 mM MgCl2. The final mitochondrial protein concentration was 30 μg. After the pre-equilibration of SMP with inhibitor for 5 min, the initial rates were calculated from the linear portion of the traces.
The activity is expressed as percentage of control.

[2] = tested on: CoQ10 deficient lymphocyte cell line; test: Total intracellular ATP concentration assay (luciferin-luciferase); type: cell-based, human; conditions: 48 h, glucose free media with galactose
Description: The reductions of mitochondrial respiratory chain activity in CoQ10 deficient patients have been reported (Quinzii G M, Lopez L C, Von-Moltke J, Naini A, Krishna S, Schuelke M, Salviati L, Navas P, DiMauro S, and Hirano, M. Respiratory chain dysfunction and oxidative stress correlate with severity of primary CoQ10 deficiency. FASEB J. 2008; 22:1874-1885). The use of CoQ10 analogues to normalize and restore the respiratory chain activities could provide valuable therapeutic approach. We have evaluated the efficiency of oxidative phosphorylation in CoQ10 deficient lymphocyte (GM17932) in presence of tested CoQ10 analogues by measuring total cellular ATP content using (ViaLight® Plus ATP monitoring reagent kit, Lonza).
CoQ10 deficient lymphocyte and normal lymphocyte cell lines were obtained from Coriell Cell Repositories (Camden, N.J.; catalog number GM-17932, GM-158151, respectively). CoQ10 deficient lymphocytes were cultured under glucose-free media supplemented with galactose for two weeks to force energy production predominantly through oxidative phosphorylation rather than glycolysis (Quinzii et al.; Robinson B H, Petrova-Benedict R, Buncic J R, Wallace D C. Nonviability of cells with oxidative defects in galactose medium: A screening test for affected patient fibroblast. Biochem. Med. Metab. Biol. 1992; 48:122-126). Lymphocytes were cultured in RPMI 1640 medium glucose-free (Gibco, Grand Island, N.Y.) supplemented with 25 mM galactose, 2 mM glutamine and 1% penicillin-streptomycin (Cellgro), and 10%, dialyzed fetal bovine serum FBS 0.5 μg/mL) (GEMINI, Bio-Product), Briefly, lymphocytes (2×10^5 cell/mL), were plated (1 mL in 12-well plates) and treated with the test compounds at final concentrations of 5, 10 μM, and 25 μM and incubated at 37° C. for 48 h in a humidified atmosphere containing 5% CO2 in air. The test compounds were prepared by first making 20 mM stock solutions in DMSO. Cells were transferred (100 μL) to 96-well microtiter black-walled cell culture plates (Costar, Corning, N.Y.). The total intracellular ATP level was measured in a luminator (Clarity™ luminescence microplate reader) with the ATP Bioluminescence Assay Kit (ViaLight® Plus ATP monitoring reagent kit, Lonza) following the manufacturer's instructions. The standard curve of ATP was obtained by serial dilution of 1 mM ATP solution. After calibration against the ATP standard, the ATP content of the cell extract was determined and normalized for protein content in the cell.
To enforce the respiratory chain-dependent ATP synthesis, cells were grown for 48 hours in glucose free media supplemented with 25 mM galactose and 10% dialyzed fetal bovine serum (glucose concentration less than 0.5 μg/mL). FIG. 20 illustrates total intracellular ATP levels in CoQ10 deficient and normal lymphocytes measured using the luciferin-luciferase reaction. The levels of ATP shown in Table 1 are relative to the 100% value obtained for the CoQ10 deficient cells in FIG. 20.

| SMILES | viability at 0.1 µM (cultured FRDA cells) | viability at 0.5 µM (cultured FRDA cells) | viability at 2.5 µM (cultured FRDA cells) | NADH oxidase activity (%) ([1]; 1 μM, percentage of control) | IC50 ([1]; beef heart SMP) | Total ATP concentration (% of control) ([2]; 5 μM) | Total ATP concentration (% of control) ([2]; 10 μM) | Total ATP concentration (% of control) ([2]; 25 μM) |
| --- | --- | --- | --- | --- | --- | --- | --- | --- |
| COc1cc(N(C)C)nc(CCCCCCCCCCO)c1O | 33 ± 4.2% | 28.3 ± 2.1% | 29.5 ± 2.1% |  |  |  |  |  |
| CCCCCCCCCCc1nc(N2C(C)CCC2C)nc(C)c1O (centres unmarked) |  |  |  | 40% | 10.7 µM |  |  |  |
| Cc1nc(N(C)C)nc(CCCCCCCCCCO)c1O [drawing 116] |  |  |  |  |  | 102.4 ± 1.2 % of control | 87.9 ± 4.3 % of control | 46.1 ± 1.2 % of control |
| COc1nc(N(C)C)nc(CCCCCCCCCCO)c1O [drawing 117] |  |  |  |  |  | 101.6 ± 1.4 % of control | 96.8 ± 4.0 % of control | 48.7 ± 0.8 % of control |
| CCCCCc1nc(N(C)C)nc(C)c1O [drawing 118] |  |  |  |  |  | 109.3 ± 2.3 % of control | 111.1 ± 1.5 % of control | 105.6 ± 2.4 % of control |
| CCCCCCCCCCc1nc(N(C)C)nc(C)c1O [drawing 119] |  |  |  |  |  | 106.6 ± 2.7 % of control | 98.7 ± 1.1 % of control | 75.3 ± 1.8 % of control |
| CCCCCCCCCCCCCCCCc1nc(N(C)C)nc(C)c1O [drawing 120] |  |  |  |  |  | 111.5 ± 1.8 % of control | 106.9 ± 2.7 % of control | 101.6 ± 3.1 % of control |
| CCCCCCCCCCc1nc(N(C)C)nc(OC)c1O [drawing 121] |  |  |  |  |  | 109.4 ± 5.0 % of control | 110.5 ± 6.5 % of control | 68.3 ± 2.7 % of control |
| CCCCCCCCCCCCCCCCc1nc(N(C)C)nc(OC)c1O [drawing 122] |  |  |  |  |  | 122.3 ± 1.9 % of control | 116.4 ± 0.5 % of control | 113.0 ± 1.6 % of control |
| Cc1nc(N(C)C)nc(CCCCCCCCCCO)c1O [drawing 123] | 63.6 ± 8.4% | 83.5 ± 0.7% | 82.7 ± 8.1% |  |  |  |  |  |
| Cc1cc(N(C)C)nc(CCCCCCCCCCO)c1O [drawing 124] | 54 ± 5.2% | 76.5 ± 2.1% | 81.7 ± 5% |  |  |  |  |  |
| COc1nc(N(C)C)nc(CCCCCCCCCCO)c1O [drawing 125] | 55.6 ± 5.7% | 80 ± 4% | 78.3 ± 7.5% |  |  |  |  |  |
| CCCCCc1nc(N(C)C)nc(C)c1O [drawing 127] | 46 ± 3.5% | 78.7 ± 4% | 81.3 ± 5.1% |  |  |  |  |  |
